Measurements published in article PMC8429728, “TNK1 is a ubiquitin-binding and 14-3-3-regulated kinase that can be targeted to block tumor growth” (Nature Communications, 2021).
Read-outs that look alike come from different tables or passages of the source.

Experiments:
Assay in all cases: biochemical
Design in all cases: Reaction Biology 371-kinase panel at Km ATP, per cent enzyme activity relative to DMSO, single dose in duplicate
[1] = target: PAK4 (Homo sapiens, UniProt O96013); settings: duplicate measurements, Km ATP
In short: (§1)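 Compound screened at 300 nM in vitro across a 371-kinase panel. Enzyme activity expressed as % of DMSO controls. IC50 values came from sigmoidal variable-slope dose-response fits with the bottom fixed at 0.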

[2] = target: EPHB3 (Homo sapiens, UniProt P54753); settings: duplicate measurements, Km ATP
In short: as §1

[3] = target: HPK1/MAP4K1 (Homo sapiens, UniProt Q92918); settings: duplicate measurements, Km ATP
In short: as §1

[4] = target: CDK14/cyclin Y (PFTK1) (Homo sapiens, UniProt O94921); settings: duplicate measurements, Km ATP
In short: as §1

[5] = target: PDGFRa (Homo sapiens, UniProt P16234); settings: duplicate measurements, Km ATP
In short: as §1

[6] = target: FGR (Homo sapiens, UniProt P09769); settings: duplicate measurements, Km ATP
In short: as §1

[7] = target: CLK4 (Homo sapiens, UniProt Q9HAZ1); settings: duplicate measurements, Km ATP
In short: as §1

[8] = target: MAPKAPK5/PRAK (Homo sapiens, UniProt Q8IW41); settings: duplicate measurements, Km ATP
In short: as §1

[9] = target: PDK1/PDPK1 (Homo sapiens, UniProt O15530); settings: duplicate measurements, Km ATP
In short: as §1

[10] = target: LOK/STK10 (Homo sapiens, UniProt O94804); settings: duplicate measurements, Km ATP
In short: as §1

[11] = target: LATS1 (Homo sapiens, UniProt O95835); settings: duplicate measurements, Km ATP
In short: as §1

[12] = target: MELK (Homo sapiens, UniProt Q14680); settings: duplicate measurements, Km ATP
In short: as §1

[13] = target: FYN (Homo sapiens, UniProt P06241); settings: duplicate measurements, Km ATP
In short: as §1

[14] = target: T1, RIPK5 (Homo sapiens, UniProt Q6XUX3); settings: duplicate measurements, Km ATP
T1 construct: gene DSTYK
In short: as §1

[15] = target: HIPK1 (Homo sapiens, UniProt Q86Z02); settings: duplicate measurements, Km ATP
In short: as §1

[16] = target: RIPK2 (Homo sapiens, UniProt O43353); settings: duplicate measurements, Km ATP
In short: as §1

[17] = target: LRRK2 (Homo sapiens, UniProt Q5S007); settings: duplicate measurements, Km ATP
In short: as §1

[18] = target: ROCK2 (Homo sapiens, UniProt O75116); settings: duplicate measurements, Km ATP; read-out: % Enzyme Activity (relative to DMSO controls) / TP-0005801 (0.3µM) / Data 1
In short: as §1

[19] = target: GRK7 (Homo sapiens, UniProt Q8WTQ7); settings: duplicate measurements, Km ATP
In short: as §1

[20] = target: NEK2 (Homo sapiens, UniProt P51955); settings: duplicate measurements, Km ATP
In short: as §1

[21] = read-out: % Enzyme Activity (relative to DMSO controls) / TP-0005801 (0.3µM) / Data 1
[22] = read-out: % Enzyme Activity (relative to DMSO controls) / TP-0005801 (0.3µM) / Data 2

Sequence of HPK1/MAP4K1 (Q92918 whole entry): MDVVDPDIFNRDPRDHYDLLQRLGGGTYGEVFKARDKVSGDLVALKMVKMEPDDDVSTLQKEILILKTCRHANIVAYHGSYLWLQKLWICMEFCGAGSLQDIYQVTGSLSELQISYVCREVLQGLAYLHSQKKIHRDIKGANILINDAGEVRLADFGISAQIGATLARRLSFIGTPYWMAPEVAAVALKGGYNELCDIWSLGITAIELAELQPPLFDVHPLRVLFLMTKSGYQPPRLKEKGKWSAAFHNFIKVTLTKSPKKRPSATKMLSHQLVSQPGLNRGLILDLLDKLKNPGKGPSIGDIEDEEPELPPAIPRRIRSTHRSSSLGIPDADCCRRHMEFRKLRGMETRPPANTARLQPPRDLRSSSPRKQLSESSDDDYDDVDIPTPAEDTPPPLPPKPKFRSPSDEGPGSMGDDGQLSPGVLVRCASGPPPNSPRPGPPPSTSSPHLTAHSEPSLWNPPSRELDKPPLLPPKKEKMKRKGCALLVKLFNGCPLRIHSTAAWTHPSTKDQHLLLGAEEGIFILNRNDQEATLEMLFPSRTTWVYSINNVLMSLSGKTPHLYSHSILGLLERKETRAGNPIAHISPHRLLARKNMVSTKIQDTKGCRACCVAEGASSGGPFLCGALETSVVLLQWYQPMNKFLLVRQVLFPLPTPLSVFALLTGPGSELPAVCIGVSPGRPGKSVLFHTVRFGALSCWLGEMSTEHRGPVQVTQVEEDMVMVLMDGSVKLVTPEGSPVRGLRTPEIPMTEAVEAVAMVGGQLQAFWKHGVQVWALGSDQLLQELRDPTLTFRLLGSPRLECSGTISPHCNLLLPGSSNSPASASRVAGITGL
Sequence of PDGFRa (P16234 whole entry): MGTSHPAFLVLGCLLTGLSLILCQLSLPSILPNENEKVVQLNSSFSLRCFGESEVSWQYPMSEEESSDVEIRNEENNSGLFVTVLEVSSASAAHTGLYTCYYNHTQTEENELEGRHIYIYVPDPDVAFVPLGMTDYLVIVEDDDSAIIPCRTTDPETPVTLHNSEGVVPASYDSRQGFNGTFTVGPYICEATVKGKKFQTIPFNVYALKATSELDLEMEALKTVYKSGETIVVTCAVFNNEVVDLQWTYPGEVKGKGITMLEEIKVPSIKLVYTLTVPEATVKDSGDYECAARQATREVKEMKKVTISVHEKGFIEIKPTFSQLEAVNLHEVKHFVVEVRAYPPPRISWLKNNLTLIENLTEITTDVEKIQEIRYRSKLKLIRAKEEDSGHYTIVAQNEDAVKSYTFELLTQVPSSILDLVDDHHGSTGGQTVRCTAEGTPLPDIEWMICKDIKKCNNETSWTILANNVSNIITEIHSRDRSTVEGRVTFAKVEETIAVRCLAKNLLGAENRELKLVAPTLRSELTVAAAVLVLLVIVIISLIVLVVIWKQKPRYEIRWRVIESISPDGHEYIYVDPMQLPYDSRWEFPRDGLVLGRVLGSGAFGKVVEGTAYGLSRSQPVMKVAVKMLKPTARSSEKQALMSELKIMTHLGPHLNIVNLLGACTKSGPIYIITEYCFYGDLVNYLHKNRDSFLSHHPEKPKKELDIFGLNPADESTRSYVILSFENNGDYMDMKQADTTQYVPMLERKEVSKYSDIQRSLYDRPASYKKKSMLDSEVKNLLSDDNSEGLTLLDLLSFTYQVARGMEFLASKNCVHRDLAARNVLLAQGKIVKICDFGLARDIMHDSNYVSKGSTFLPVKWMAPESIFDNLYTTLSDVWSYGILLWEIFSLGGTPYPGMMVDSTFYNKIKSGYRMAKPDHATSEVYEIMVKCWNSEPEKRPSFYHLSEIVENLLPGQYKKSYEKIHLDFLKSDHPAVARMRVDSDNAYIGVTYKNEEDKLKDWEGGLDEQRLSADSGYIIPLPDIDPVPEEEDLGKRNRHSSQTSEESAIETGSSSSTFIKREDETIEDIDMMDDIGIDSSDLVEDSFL
Sequence of LATS1 (O95835 whole entry): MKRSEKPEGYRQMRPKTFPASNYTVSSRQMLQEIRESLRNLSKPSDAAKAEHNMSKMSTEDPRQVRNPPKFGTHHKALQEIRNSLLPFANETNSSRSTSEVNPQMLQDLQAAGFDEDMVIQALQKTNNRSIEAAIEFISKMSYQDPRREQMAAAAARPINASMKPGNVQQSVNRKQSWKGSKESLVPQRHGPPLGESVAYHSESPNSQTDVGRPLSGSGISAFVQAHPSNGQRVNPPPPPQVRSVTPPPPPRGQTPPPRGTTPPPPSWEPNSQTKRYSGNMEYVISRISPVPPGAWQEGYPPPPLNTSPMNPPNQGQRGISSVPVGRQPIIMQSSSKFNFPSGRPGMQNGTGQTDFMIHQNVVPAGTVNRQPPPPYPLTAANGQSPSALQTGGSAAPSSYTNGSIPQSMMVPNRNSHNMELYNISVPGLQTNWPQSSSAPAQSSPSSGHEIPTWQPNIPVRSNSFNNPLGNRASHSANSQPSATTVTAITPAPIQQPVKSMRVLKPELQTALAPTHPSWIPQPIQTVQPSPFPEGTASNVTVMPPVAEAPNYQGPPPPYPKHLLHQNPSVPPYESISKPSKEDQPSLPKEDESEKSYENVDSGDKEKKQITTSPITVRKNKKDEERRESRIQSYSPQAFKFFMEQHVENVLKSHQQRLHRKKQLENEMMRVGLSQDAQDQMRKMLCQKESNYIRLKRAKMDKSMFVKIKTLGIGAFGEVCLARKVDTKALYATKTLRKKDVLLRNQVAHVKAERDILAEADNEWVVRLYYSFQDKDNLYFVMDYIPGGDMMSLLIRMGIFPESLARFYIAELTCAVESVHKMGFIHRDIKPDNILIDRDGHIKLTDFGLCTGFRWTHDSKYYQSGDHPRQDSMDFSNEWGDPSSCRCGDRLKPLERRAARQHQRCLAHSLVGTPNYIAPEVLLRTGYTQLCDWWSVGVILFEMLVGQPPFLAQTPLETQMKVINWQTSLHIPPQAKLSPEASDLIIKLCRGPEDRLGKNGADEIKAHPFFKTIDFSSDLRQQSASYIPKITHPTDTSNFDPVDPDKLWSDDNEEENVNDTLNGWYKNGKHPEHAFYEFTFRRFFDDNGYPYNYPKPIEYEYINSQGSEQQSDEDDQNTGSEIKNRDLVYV
Sequence of MAPKAPK5/PRAK (Q8IW41 whole entry): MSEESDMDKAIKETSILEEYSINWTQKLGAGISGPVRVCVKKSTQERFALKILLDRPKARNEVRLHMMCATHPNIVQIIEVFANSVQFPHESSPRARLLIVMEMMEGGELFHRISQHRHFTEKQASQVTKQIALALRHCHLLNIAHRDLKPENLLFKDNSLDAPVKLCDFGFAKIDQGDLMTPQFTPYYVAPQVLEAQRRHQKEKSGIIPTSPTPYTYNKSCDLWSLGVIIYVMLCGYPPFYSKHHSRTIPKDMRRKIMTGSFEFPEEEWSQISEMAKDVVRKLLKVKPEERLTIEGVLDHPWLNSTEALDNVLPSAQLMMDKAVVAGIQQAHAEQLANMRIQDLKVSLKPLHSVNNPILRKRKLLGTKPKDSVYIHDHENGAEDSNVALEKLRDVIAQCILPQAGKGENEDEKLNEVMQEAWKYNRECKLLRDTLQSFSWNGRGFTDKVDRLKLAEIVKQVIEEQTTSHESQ
T1 sequence (Q6XUX3 whole entry): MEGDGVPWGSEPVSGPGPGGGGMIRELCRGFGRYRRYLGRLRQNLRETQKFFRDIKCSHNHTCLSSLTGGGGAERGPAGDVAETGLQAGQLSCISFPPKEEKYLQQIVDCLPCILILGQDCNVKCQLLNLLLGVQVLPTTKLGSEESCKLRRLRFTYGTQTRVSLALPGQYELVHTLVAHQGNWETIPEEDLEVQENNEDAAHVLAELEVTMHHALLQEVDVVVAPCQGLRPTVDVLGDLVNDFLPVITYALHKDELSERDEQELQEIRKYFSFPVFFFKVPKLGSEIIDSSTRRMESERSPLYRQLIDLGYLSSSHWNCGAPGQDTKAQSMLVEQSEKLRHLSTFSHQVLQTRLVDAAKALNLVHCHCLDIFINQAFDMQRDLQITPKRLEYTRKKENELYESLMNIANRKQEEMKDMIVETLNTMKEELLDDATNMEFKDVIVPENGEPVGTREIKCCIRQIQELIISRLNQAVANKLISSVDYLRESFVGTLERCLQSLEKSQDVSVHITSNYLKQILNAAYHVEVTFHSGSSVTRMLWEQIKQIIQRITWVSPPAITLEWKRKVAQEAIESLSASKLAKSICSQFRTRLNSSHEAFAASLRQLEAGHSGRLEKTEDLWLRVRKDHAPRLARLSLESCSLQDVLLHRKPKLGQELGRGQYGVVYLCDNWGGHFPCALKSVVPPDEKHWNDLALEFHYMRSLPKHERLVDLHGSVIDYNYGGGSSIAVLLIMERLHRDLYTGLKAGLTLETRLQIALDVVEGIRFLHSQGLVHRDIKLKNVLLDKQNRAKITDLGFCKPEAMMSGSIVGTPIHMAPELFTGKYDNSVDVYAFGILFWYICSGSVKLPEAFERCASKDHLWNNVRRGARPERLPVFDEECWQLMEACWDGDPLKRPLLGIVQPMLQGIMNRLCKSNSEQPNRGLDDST
Sequence of RIPK2 (O43353 whole entry): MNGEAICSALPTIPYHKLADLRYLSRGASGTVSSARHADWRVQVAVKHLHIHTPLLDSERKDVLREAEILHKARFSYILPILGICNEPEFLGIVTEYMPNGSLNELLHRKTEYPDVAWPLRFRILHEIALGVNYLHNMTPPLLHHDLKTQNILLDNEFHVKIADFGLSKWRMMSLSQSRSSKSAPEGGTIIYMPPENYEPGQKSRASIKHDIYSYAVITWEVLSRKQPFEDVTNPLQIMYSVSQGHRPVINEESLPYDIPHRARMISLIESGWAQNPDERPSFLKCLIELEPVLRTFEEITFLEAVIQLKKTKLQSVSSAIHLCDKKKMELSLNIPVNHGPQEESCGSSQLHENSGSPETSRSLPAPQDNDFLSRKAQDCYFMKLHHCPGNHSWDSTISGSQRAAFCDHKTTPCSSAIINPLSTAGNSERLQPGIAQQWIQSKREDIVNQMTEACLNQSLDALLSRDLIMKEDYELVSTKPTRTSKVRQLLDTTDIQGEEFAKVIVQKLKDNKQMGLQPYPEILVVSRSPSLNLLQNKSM

Question: With `COc1cc(N2CCN(C)CC2)c(C)cc1Nc1ncc(Br)c(Nc2cccnc2N(C)C)n1` [TP-5801] as the compound, how does the remaining activity at 0.3 µM [1, 21] read?
Answer: The remaining activity at 0.3 µM was 59.4%.

Question: And the remaining activity at 0.3 µM [1, 22]?
Answer: Its remaining activity at 0.3 µM is 54.7%.

Question: What about the remaining activity at 0.3 µM [2, 21] of the same compound?
Answer: Its remaining activity at 0.3 µM is 104%.

Question: And the remaining activity at 0.3 µM [2, 22]?
Answer: The remaining activity at 0.3 µM was 102%.

Question: What about the remaining activity at 0.3 µM [3, 21] of the same compound?
Answer: Its remaining activity at 0.3 µM is 25.8%.

Question: What about the remaining activity at 0.3 µM [3, 22] of the same compound?
Answer: The remaining activity at 0.3 µM was 25.6%.

Question: And the remaining activity at 0.3 µM [4, 21]?
Answer: The remaining activity at 0.3 µM was 91.8%.

Question: And the remaining activity at 0.3 µM [4, 22]?
Answer: The remaining activity at 0.3 µM was 90.2%.

Question: What about the remaining activity at 0.3 µM [5, 21] of the same compound?
Answer: The remaining activity at 0.3 µM was 84.6%.

Question: What about the remaining activity at 0.3 µM [5, 22] of the same compound?
Answer: Its remaining activity at 0.3 µM is 84.5%.

Question: What about the remaining activity at 0.3 µM [6, 21] of the same compound?
Answer: Its remaining activity at 0.3 µM is 109%.

Question: What about the remaining activity at 0.3 µM [6, 22] of the same compound?
Answer: Its remaining activity at 0.3 µM is 105%.

Question: What about the remaining activity at 0.3 µM [7, 21] of the same compound?
Answer: The remaining activity at 0.3 µM was 30.4%.

Question: And the remaining activity at 0.3 µM [7, 22]?
Answer: The remaining activity at 0.3 µM was 30.2%.

Question: What about the remaining activity at 0.3 µM [8, 21] of the same compound?
Answer: The remaining activity at 0.3 µM was 116%.

Question: What about the remaining activity at 0.3 µM [8, 22] of the same compound?
Answer: The remaining activity at 0.3 µM was 107%.

Question: And the remaining activity at 0.3 µM [9, 21]?
Answer: The remaining activity at 0.3 µM was 89.9%.

Question: And the remaining activity at 0.3 µM [9, 22]?
Answer: Its remaining activity at 0.3 µM is 89.6%.

Question: What about the remaining activity at 0.3 µM [10, 21] of the same compound?
Answer: The remaining activity at 0.3 µM was 74.7%.

Question: What about the remaining activity at 0.3 µM [10, 22] of the same compound?
Answer: The remaining activity at 0.3 µM was 73.7%.

Question: What about the remaining activity at 0.3 µM [11, 21] of the same compound?
Answer: The remaining activity at 0.3 µM was 103%.

Question: What about the remaining activity at 0.3 µM [11, 22] of the same compound?
Answer: The remaining activity at 0.3 µM was 102%.

Question: What about the remaining activity at 0.3 µM [12, 21] of the same compound?
Answer: Its remaining activity at 0.3 µM is 93.1%.

Question: And the remaining activity at 0.3 µM [12, 22]?
Answer: Its remaining activity at 0.3 µM is 90.3%.

Question: And the remaining activity at 0.3 µM [13, 21]?
Answer: Its remaining activity at 0.3 µM is 108%.

Question: What about the remaining activity at 0.3 µM [13, 22] of the same compound?
Answer: The remaining activity at 0.3 µM was 105%.

Question: And the remaining activity at 0.3 µM [14, 21]?
Answer: The remaining activity at 0.3 µM was 108%.

Question: What about the remaining activity at 0.3 µM [14, 22] of the same compound?
Answer: The remaining activity at 0.3 µM was 101%.

Question: And the remaining activity at 0.3 µM [15, 21]?
Answer: The remaining activity at 0.3 µM was 90.8%.

Question: And the remaining activity at 0.3 µM [15, 22]?
Answer: Its remaining activity at 0.3 µM is 89.2%.

Question: What about the remaining activity at 0.3 µM [16, 21] of the same compound?
Answer: Its remaining activity at 0.3 µM is 95.8%.

Question: What about the remaining activity at 0.3 µM [16, 22] of the same compound?
Answer: The remaining activity at 0.3 µM was 93.9%.

Question: What about the remaining activity at 0.3 µM [17, 21] of the same compound?
Answer: The remaining activity at 0.3 µM was 8.89%.

Question: What about the remaining activity at 0.3 µM [17, 22] of the same compound?
Answer: The remaining activity at 0.3 µM was 8.22%.

Question: What about the remaining activity at 0.3 µM [18] of the same compound?
Answer: Its remaining activity at 0.3 µM is 103%.

Question: What about the remaining activity at 0.3 µM [19, 21] of the same compound?
Answer: Its remaining activity at 0.3 µM is 105%.

Question: What about the remaining activity at 0.3 µM [19, 22] of the same compound?
Answer: Its remaining activity at 0.3 µM is 97.5%.

Question: And the remaining activity at 0.3 µM [20, 21]?
Answer: The remaining activity at 0.3 µM was 60.3%.

Question: And the remaining activity at 0.3 µM [20, 22]?
Answer: Its remaining activity at 0.3 µM is 55.8%.
